# Like-named read-outs stand apart in the source and are kept apart here.
# Legend:
# Format in all cases: cell-based, HIV-1
# [1] = test system: HXB2; experiment: MTT-reduction cell viability drug susceptibility assay, wild type HXB2 (Table 3A); settings: for fold resistance: HXB2 wild type (reference)
# Method: (§1) As previously discussed, recombinant virus produced by the method of the present invention may be used in drug sensitivity assays. A suitable drug sensitivity assay is described in Pauwels et al. (1988) and is an MTT-reduction colorimetric cell viability assay. Cells infected with the virus are plated into the wells of tissue culture plates and incubated with the anti-viral drug to be tested. After incubation, MTT (3-(4,5-dimethylthiazol-2-yl)-2,5diphenyltetrazolium bromide) is added to the cell culture. Only live cells produce the blue formazan product after incubation with MTT. This product is detectable by reading the optical absorbance at 540-590 nm, so the absorbance reading gives a measure of the cells which have been protected from the virus by the anti-viral drug. Viral drug resistance results in a decrease in surviving cells and a decrease in absorbance at 540-590 nm.
# (§2) In order to determine whether the extra sequences in the FPH recombinants contain determinants of susceptibility, the recombinant viruses were tested against several drugs. Drug susceptibility was determined by the 3-(4,5dimethylthiazol-2-yl)-2,5-diphenyltetrazolium bromide (MTT)-reduction calorimetric cell viability assay described previously (Pauwels et al. 1988; Robinson et al., 2000). Changes in susceptibility were defined as fold increase in IC50 relative to WT (HXB2). Nucleotide sequences were determined using ABI 3700 capillary sequencers and Big Dye terminators. […] Virus 1 also gave a 2.2-fold (Table 3A) or 4-fold (Table 3B) higher susceptibility to IDV and 2.9-fold (Table 3A) or 3.2-fold higher susceptibility to APV when generated by RVA.
# [2] = test system: Virus 4.1, 4.2, 4.3 (recombinants by RVA); experiment: MTT-reduction cell viability drug susceptibility assay, viruses 4.1-4.3 (Table 3B); settings: for EC50: Human immunodeficiency virus 1, Table 3B; for fold resistance: Table 3B, relative to WT
# Method: as §1
# (§3) The LTR was added to the nested products by PMR prior to transfection. The PMR reactions successfully added the LTR sequences to the nested products (FIG. 9). The first round RT-PCR reactions were also used as templates to generate products for RVA by cotransfection with pHXBΔCSPRTC. Triplicate PCR products were cotransfected into MT4 cells with the linearised plasmid pHXBTOPO1, in the case of the PMR products, and with linearised pHXBΔCSPRTC in for the RVA products. Viral cytopathic effect was observed and titratable virus was harvested in the supernatants. No virus was isolated from virus 2 using FPH and only one of the triplicate cultures from virus 3 yielded infectious virus. All of the RVA cultures produced virus.
# as §2
# [3] = test system: Virus 2 (recombinant generated from plasma of Subject 2 by RVA); experiment: MTT-reduction cell viability drug susceptibility assay, recombinant Virus 2 (RVA); settings: for EC50 / fold resistance: Table 3A, Virus 2, method RVA; for fold resistance: relative to WT (HXB2); for resistance, fold higher than wild-type: Virus 2 obtained via the RVA
# Method: as §1
# (§4) In this experiment, plasma from three HIV-1 infected subjects experiencing virological failure on PI-containing therapy regimens was used as the basis for the FPH to generate recombinant virus. […] Virus from Subject 2 had L10I, M46I, I50V and a Lp1′F mutation at the p1/p6 protease cleavage site, all of which are mutations typical of high level APV resistance.
# as §3, §2
# [4] = test system: Virus 1 (recombinant generated from plasma of Subject 1 by FPH or RVA); experiment: MTT-reduction cell viability drug susceptibility assay, recombinant Virus 1 (FPH or RVA); settings: for fold resistance: relative to WT (HXB2); for fold higher susceptibility when generated by RVA than when generated by FPH: virus 1
# Method: as §1, §4, §3, §2
# [5] = test system: WT (HXB2) generated by FPH or RVA; experiment: MTT-reduction cell viability drug susceptibility assay, WT (Table 3B); settings: for EC50: Human immunodeficiency virus 1, HXB2, Table 3B; for fold resistance: Table 3B
# Method: as §1, §2
# [6] = test system: Virus 5.1 (FPH), 5.2 (RVA); experiment: MTT-reduction cell viability drug susceptibility assay, viruses 5.1 and 5.2 (Table 3B); settings: for EC50: Human immunodeficiency virus 1, Table 3B; for fold resistance: Table 3B, relative to WT
# Method: as §1, §3, §2
# [7] = test system: Virus 3.1, 3.2, 3.3 (recombinants by FPH or RVA); experiment: MTT-reduction cell viability drug susceptibility assay, viruses 3.1-3.3 (Table 3B); settings: for fold resistance: Table 3B, relative to WT
# Method: as §1, §3, §2
# [8] = test system: Virus 3 (recombinant generated from plasma of Subject 3 by FPH or RVA); experiment: MTT-reduction cell viability drug susceptibility assay, recombinant Virus 3 (FPH or RVA); settings: for fold resistance: relative to WT (HXB2); for difference in susceptibility between the two techniques (RVA vs FPH): virus 3
# Method: as §1, §4, §3, §2
# [9] = Human immunodeficiency virus 1, HXB2 wild type
# [10] = Human immunodeficiency virus 1, Table 3A, Virus 1, method RVA, read-out: Drug EC50
# [11] = Human immunodeficiency virus 1, read-out: Drug EC50, Table 3A, Virus 1, method FPH
# [12] = Human immunodeficiency virus 1, Table 3B, Virus 3.1, method FPH, read-out: Drug EC50
# [13] = Human immunodeficiency virus 1, Table 3B, Virus 3.2, method FPH, read-out: Drug EC50
# [14] = Human immunodeficiency virus 1, Table 3B, Virus 3.2, method RVA, read-out: Drug EC50
# [15] = Human immunodeficiency virus 1, Table 3B, Virus 3.3, method FPH, read-out: Drug EC50
# [16] = Human immunodeficiency virus 1, read-out: Drug EC50, Table 3B, Virus 3.1, method RVA
# [17] = Human immunodeficiency virus 1, Table 3A, Virus 3, method FPH
# [18] = Human immunodeficiency virus 1, Table 3A, Virus 3, method RVA
structure (smiles),measurement,setting,value
"CC(C)CN(C[C@@H](O)[C@H](Cc1ccccc1)NC(=O)O[C@H]1CCOC1)S(=O)(=O)c1ccc(N)cc1 [APV, amprenavir]",fold resistance,[1],(1.0) fold
same,EC50,[1]; [9],67.5 nM
same,EC50,"[2]; Virus 4.1, method RVA",> 2500 nM
same,EC50,"[2]; Virus 4.2, method RVA",2010 nM
same,EC50,"[2]; Virus 4.3, method RVA",> 2500 nM
same,fold resistance,"[2]; Virus 4.1, method RVA",(>21) fold
same,fold resistance,"[2]; Virus 4.2, method RVA",(17) fold
same,fold resistance,"[2]; Virus 4.3, method RVA",(>21) fold
same,EC50,[3]; Human immunodeficiency virus 1,1070 nM
same,fold resistance,[3],(16) fold
same,"resistance, fold higher than wild-type",[3]; Table 3B experiment,> 21 fold
same,"resistance, fold higher than wild-type",[3]; first printed value (Table 3A experiment),16 fold
same,EC50,[4]; [10],128 nM
same,EC50,[4]; [11],366 nM
same,fold resistance,"[4]; Table 3A, Virus 1, method FPH",(5.4) fold
same,fold resistance,"[4]; Table 3A, Virus 1, method RVA",(1.9) fold
same,fold higher susceptibility when generated by RVA than when generated by FPH,[4]; Table 3A experiment,2.9 fold
same,fold higher susceptibility when generated by RVA than when generated by FPH,[4]; Table 3B experiment,3.2 fold
same,EC50,[5]; method FPH,113 nM
same,EC50,[5]; method RVA,121 nM
same,fold resistance,[5]; method FPH (reference),(1.0) fold
same,fold resistance,[5]; method RVA (reference),(1.0) fold
same,EC50,"[6]; Virus 5.1, method FPH",1570 nM
same,EC50,"[6]; Virus 5.2, method RVA",802 nM
same,fold resistance,"[6]; Virus 5.1, method FPH",(14) fold
same,fold resistance,"[6]; Virus 5.2, method RVA",(6.6) fold
same,EC50,[7]; [12],865 nM
same,EC50,[7]; [13],691 nM
same,EC50,[7]; [14],245 nM
same,EC50,[7]; [15],619 nM
same,EC50,[7]; [16],211 nM
same,fold resistance,"[7]; Virus 3.1, method FPH",(7.7) fold
same,fold resistance,"[7]; Virus 3.1, method RVA",(1.7) fold
same,fold resistance,"[7]; Virus 3.2, method FPH",(6.1) fold
same,fold resistance,"[7]; Virus 3.2, method RVA",(2.0) fold
same,fold resistance,"[7]; Virus 3.3, method FPH",(5.5) fold
same,EC50,[8]; [17],718 nM
same,EC50,[8]; [18],396 nM
same,fold resistance,"[8]; Table 3A, Virus 3, method FPH",(11) fold
same,fold resistance,"[8]; Table 3A, Virus 3, method RVA",(5.9) fold
same,difference in susceptibility between the two techniques (RVA vs FPH),[8]; Table 3B experiment,2.0 fold
same,difference in susceptibility between the two techniques (RVA vs FPH),[8]; first of the two printed values (Table 3A experiment),1.9 fold
"CC(C)(C)NC(=O)[C@@H]1CN(Cc2cccnc2)CCN1C[C@@H](O)C[C@@H](Cc1ccccc1)C(=O)N[C@H]1c2ccccc2C[C@H]1O [IDV, indinavir]",fold resistance,[1],(1.0) fold
same,EC50,[1]; [9],29.7 nM
same,EC50,"[2]; Virus 4.1, method RVA",65 nM
same,EC50,"[2]; Virus 4.2, method RVA",23.8 nM
same,EC50,"[2]; Virus 4.3, method RVA",39.3 nM
same,fold resistance,"[2]; Virus 4.1, method RVA",(2.1) fold
same,fold resistance,"[2]; Virus 4.2, method RVA",(−1.3) fold
same,fold resistance,"[2]; Virus 4.3, method RVA",(1.3) fold
same,EC50,[3]; Human immunodeficiency virus 1,18.7 nM
same,fold resistance,[3],(0.63) fold
same,EC50,[4]; [10],14.2 nM
same,EC50,[4]; [11],31.2 nM
same,fold resistance,"[4]; Table 3A, Virus 1, method FPH",(1.1) fold
same,fold resistance,"[4]; Table 3A, Virus 1, method RVA",(0.48) fold
same,fold higher susceptibility when generated by RVA than when generated by FPH,[4]; Table 3A experiment,2.2 fold
same,fold higher susceptibility when generated by RVA than when generated by FPH,[4]; Table 3B experiment,4 fold
same,EC50,[5]; method FPH,30.8 nM
same,EC50,[5]; method RVA,31.2 nM
same,fold resistance,[5]; method FPH (reference),(1.0) fold
same,fold resistance,[5]; method RVA (reference),(1.0) fold
same,EC50,"[6]; Virus 5.1, method FPH",2230 nM
same,EC50,"[6]; Virus 5.2, method RVA",1520 nM
same,fold resistance,"[6]; Virus 5.1, method FPH",(72) fold
same,fold resistance,"[6]; Virus 5.2, method RVA",(49) fold
same,EC50,[7]; [12],60.1 nM
same,EC50,[7]; [13],57.1 nM
same,EC50,[7]; [14],16.5 nM
same,EC50,[7]; [15],53.2 nM
same,EC50,[7]; [16],11.6 nM
same,fold resistance,"[7]; Virus 3.1, method FPH",(2.0) fold
same,fold resistance,"[7]; Virus 3.1, method RVA",(−2.7) fold
same,fold resistance,"[7]; Virus 3.2, method FPH",(1.9) fold
same,fold resistance,"[7]; Virus 3.2, method RVA",(−1.9) fold
same,fold resistance,"[7]; Virus 3.3, method FPH",(1.7) fold
same,EC50,[8]; [17],1250 nM
same,EC50,[8]; [18],689 nM
same,fold resistance,"[8]; Table 3A, Virus 3, method FPH",(42) fold
same,fold resistance,"[8]; Table 3A, Virus 3, method RVA",(23) fold
Cc1c(O)cccc1C(=O)N[C@@H](CSc1ccccc1)[C@H](O)CN1C[C@H]2CCCC[C@H]2C[C@H]1C(=O)NC(C)(C)C [NFV],EC50,[1]; HXB2 wild type,29.9 nM
same,fold resistance,[1],(1.0) fold
same,EC50,[3],70.8 nM
same,fold resistance,[3],(2.4) fold
same,EC50,"[4]; Table 3A, Virus 1, method FPH, read-out: Drug EC50",70 nM
same,fold resistance,"[4]; Table 3A, Virus 1, method FPH",(2.3) fold
same,EC50,"[4]; Table 3A, Virus 1, method RVA, read-out: Drug EC50",26.9 nM
same,fold resistance,"[4]; Table 3A, Virus 1, method RVA",(0.90) fold
same,EC50,"[8]; Table 3A, Virus 3, method FPH",591 nM
same,fold resistance,"[8]; Table 3A, Virus 3, method FPH",(20) fold
same,EC50,"[8]; Table 3A, Virus 3, method RVA",390 nM
same,fold resistance,"[8]; Table 3A, Virus 3, method RVA",(13) fold
